Experimental data taken from patent publication US6410584B1, “Method for inhibiting neoplastic cells with indole derivatives” (Cell Pathways, Inc., priority 1998, dated 2002).

SMILES	melting point
CCCCCS(=O)(=O)NC(=O)c1ccc2[nH]c(C)c(Cc3ccc(-c4ccccc4)cc3)c2c1 [Compound 95, 3-(biphenyl-4-ylmethyl)-2-methyl-5-(1-pentanesulfonylcarbamoyl)indole]	189 to 190 °C
CCCCS(=O)(=O)NC(=O)c1ccc2[nH]c(C)c(C(=O)c3ccc(Cl)cc3Cl)c2c1 [Compound 97, 5-(1-butanesulfonylcarbamoyl)-3-(2,4-dichlorobenzoyl)-2-methylindole]	241 to 243 °C
CCCCCS(=O)(=O)NC(=O)c1ccc2[nH]c(CCC)c(Cc3ccc(Cl)cc3Cl)c2c1 [Compound 101, 3-(2,4-dichlorobenzyl)-5-(1-pentanesulfonylcarbamoyl)-2-propylindole]	168 to 169 °C
CCCS(=O)(=O)NC(=O)c1ccc2[nH]c(C)c(Cc3ccc(Cl)cc3Cl)c2c1 [Compound 91, 3-(2,4-dichlorobenzyl)-2-methyl-5-(1-propanesulfonylcarbamoyl)indole]	161 to 163 °C
CCCCS(=O)(=O)NC(=O)c1ccc2c(Cc3ccc(Cl)cc3Cl)c(C)[nH]c2c1 [Compound 90, 6-(1-butanesulfonylcarbamoyl)-3-(2,4-dichlorobenzyl)-2-methylindole]	249 to 250 °C
Cc1[nH]c2ccc(C(=O)NS(=O)(=O)CCC(C)C)cc2c1Cc1ccc(Cl)cc1Cl [Compound 98, 3-(2,4-dichlorobenzyl)-2-methyl-5-(3-methyl-1-butanesulfonylcarbamoyl)indole]	167 to 169 °C
CCCCCCS(=O)(=O)NC(=O)c1ccc2[nH]c(C)c(Cc3ccc(Cl)cc3Cl)c2c1 [Compound 94, 3-(2,4-dichlorobenzyl)-5-(1-hexanesulfonylcarbamoyl)-2-methylindole]	183 to 185 °C
CCCCS(=O)(=O)NC(=O)c1ccc2c(C)c(Cc3ccc(Cl)cc3Cl)[nH]c2c1 [Compound 121, 6-(1-butanesulfonylcarbamoyl)-2-(2,4-dichlorobenzyl)-3-methylindole]	215.5 to 216.1 °C
CCCCS(=O)(=O)NC(=O)c1ccc2[nH]cc(Cc3ccc(Cl)cc3Cl)c2c1 [Compound 48, 5-(1-butanesulfonylcarbamoyl)-3-(2,4-dichlorobenzyl)indole]	165.5 to 166.2 °C
CCCCCS(=O)(=O)NC(=O)c1ccc2[nH]c(C)c(Cc3ccccc3Cl)c2c1 [Compound 96, 3-(2-chlorobenzyl)-2-methyl-5-(1-pentanesulfonylcarbamoyl)indole]	175 to 177 °C
Cc1[nH]c2ccc(C(=O)NS(=O)(=O)C(F)(F)F)cc2c1Cc1ccc(Cl)cc1Cl [Compound 113, 3-(2,4-dichlorobenzyl)-2-methyl-5-(trifluoromethanesulfonylcarbamoyl)indole]	201 to 205 °C
CCCCCS(=O)(=O)NC(=O)c1ccc2[nH]c(C)c(Cc3ccc(OCc4ccccc4)cc3)c2c1 [Compound 100, 3-(4-benzyloxybenzyl)-2-methyl-5-(1-pentanesulfonylcarbamoyl)indole]	180 to 184 °C
Cc1[nH]c2ccc(C(=O)NS(=O)(=O)c3ccccc3)cc2c1Cc1ccc(Cl)cc1Cl [Compound 93, 5-(benzenesulfonylcarbamoyl)-3-(2,4-dichlorobenzyl)-2-methylindole]	244 to 245 °C
